Results from patent US20060069157A1, “Method of ameliorating or abrogating the effects of a neurodegenerative disorder, such as Huntington's disease, by sodium butyrate chemotherapy” (U.S. DEPARTMENT OF VETERANS AFFAIRS, priority 2004, published 2006).
Entries after “also recorded” stand apart in the source; their conditions may differ. Marks after values point to notes of the source that are not given here.

Columns and labels:
[1] = test system: mRNA expression in R6/2 striatum and cortex; test: Microarray gene expression analysis (U74Av2) of striatum and cortex; assay type: in vivo, mouse; parameters: key to Array, NaBu Txd R6/2 vs R6/2: I = increased; D = decreased; NC = no change
Method: Microarray Gene Expression Analysis: Beginning at six weeks of age, four mice were treated for 2 weeks with daily intraperitoneal injections (1.2 g/kg) of sodium butyrate. Mice were euthanized within 60 minutes of the last injection and cortical and striatal brain tissues were dissected separately and snap frozen on dry ice. In parallel, samples from four untreated R6/2 and four wild-type mice were collected in the same manner. One microarray sample was prepared from 10 Êg of total RNA from each tissue and hybridized to one U74Av2 array (Affymetrix). Four independent pair-wise comparisons were performed using MAS 5.0 software (Affymetrix) to evaluate gene expression changes between sodium butyrate-treated R6/2 and untreated R6/2 animals and between untreated R6/2 and untreated wild-type animals. Difference calls were scored, and only mRNAs that received difference calls in the same direction (increased or decreased) in at least 3 of the 4 pair-wise comparisons were included for presentation in the present study.

[2] = test system: R6/2 transgenic mouse model of HD; test: Neuropathological evaluation (brain weight, gross atrophy, striatal neuron area) at 90 days; assay type: in vivo
Method: Neuropathological Evaluation of Sodium Butyrate Treatment: Beginning at 21 days, R6/2 transgenic mice and wild-type littermate control mice were treated daily with the most optimal dose of sodium butyrate (1.2 g/kg), as determined by survival studies, or PBS intraperitoneal injections. Groups of 10 animals from each treatment paradigm were deeply anesthetized and transcardially perfused with 4% buffered paraformaldehyde at 90 days of age. Forty mice were used for neuropathological analysis, as previously described (Ferrante et al., 2002). Serially cut tissue sections were stained for Nissl substance and immunostained for huntingtin (monoclonal huntingtin antibody, 1:1,000 dilution, Chemicon International Inc.) and for acetylated histone 3 and histone 4 (dilution, 1:1,000, Upstate Biotechnology, Lake Placid, N.Y.), using a previously reported conjugated secondary antibody method in murine brain tissue samples (Ferrante et al., 2002). Specificity for the antisera used in this study was examined in each immunochemical experiment to assist with the interpretation of the results. Preabsorption with excess target proteins, omission of the primary antibodies, and omission of secondary antibodies were performed to determine the amount of background generated from the detection assay.
Stereology/Quantitation: Serial-cut coronal tissue-sections beginning from the most rostral segment of the neostriatum to the level of the anterior commissure (Inter aural 5.34 mm/Bregma 1.54 mm to Inter aural 3.7 mm/Bregma −0.10 mm), were used for huntingtin aggregate analysis. Unbiased stereological counts of huntingtin-positive aggregates ([…]) were obtained from the neostriatum in 10 mice each from sodium butyrate-treated (1.2 g/kg) and PBS-treated R6/2 mice at 90 days using Neurolucida Stereo Investigator software (Microbrightfield, Colchester, Vt.). The total areas of the rostral neostriatum were defined in serial sections in which counting frames were randomly sampled. The optical dissector method was employed estimating the number of huntingtin-positive aggregates. Striatal neuron areas were analyzed by microscopic videocapture using a Windows-based image analysis system for area measurement (Optimas, Bioscan Incorporated, Edmonds, Wash.). The software automatically identifies and measures profiles. All computer identified cell profiles were manually verified as neurons and exported to Microsoft Excel. Cross-sectional areas were analyzed using Statview.

[3] = test system: huntingtin-positive aggregates; test: Huntingtin aggregate stereology and ubiquitin inclusions in neostriatum; assay type: in vivo, mouse; conditions: 1.2 g/kg/d i.p. from 21 days; at 90 days; vs PBS-treated R6/2
Method: Neuropathological Evaluation of Sodium Butyrate Treatment: Beginning at 21 days, R6/2 transgenic mice and wild-type littermate control mice were treated daily with the most optimal dose of sodium butyrate (1.2 g/kg), as determined by survival studies, or PBS intraperitoneal injections. Groups of 10 animals from each treatment paradigm were deeply anesthetized and transcardially perfused with 4% buffered paraformaldehyde at 90 days of age. Forty mice were used for neuropathological analysis, as previously described (Ferrante et al., 2002). […]
Stereology/Quantitation: Serial-cut coronal tissue-sections beginning from the most rostral segment of the neostriatum to the level of the anterior commissure (Inter aural 5.34 mm/Bregma 1.54 mm to Inter aural 3.7 mm/Bregma −0.10 mm), were used for huntingtin aggregate analysis. […] Striatal neuron areas were analyzed by microscopic videocapture using a Windows-based image analysis system for area measurement (Optimas, Bioscan Incorporated, Edmonds, Wash.). […] Cross-sectional areas were analyzed using Statview.

[4] = test system: MKP-1, α-globin, β-globin, preproenkephalin mRNA; test: Northern blotting of brain mRNAs; assay type: in vivo, mouse; conditions: percentage of untreated R6/2, normalized to β-actin
Method: Northern Blotting: Two micrograms of total RNA from brain samples of sodium butyrate-treated and untreated R6/2 and wild type mice (n=4 each) were separated on a 1.2% agarose 3% formaldehyde gel in 1× MOPS buffer, electrophoretically transferred to a nylon membrane (Genescreen Ill.) in 1× TAE, and dried in a standard utility oven at 65 βC. cDNA probes were prepared from IMAGE clones (Research Genetics, _-globin 555069, _-globin 318205, MKP-1 4235972), or cDNAs described in previous studies (enkephalin and _-actin probe sequences) (Luthi-Carter et al., 2002). Hybridizations and washes were conducted as previously described (Luthi-Carter et al. 2002). Blots were quantitated using a Molecular Dynamics Phosphorimager and its accompanying ImageQuant software. Signals for target mRNAs were expressed as ratios to _-actin signals (on the same blot), and the data was analyzed by unpaired two-tailed Student's t-test.

[5] = Angiomotin like 2 mRNA, AI854404, 160131_at, Cortex, treated vs untreated R6/2
[6] = Arginine vasopressin mRNA, M88354, 93381_at, Cortex, treated vs untreated R6/2
[7] = DNAJ/Heat shock protein 40 mRNA, AB028272, 96254_at, Striatum, treated vs untreated R6/2
[8] = Dynamin mRNA, L31397, 103031_g_at, Cortex, treated vs untreated R6/2
[9] = Erythroid differentiation regulator mRNA, AJ007909, 98525_f_at, Striatum, treated vs untreated R6/2
[10] = Hemoglobin, alpha adult chain 1 mRNA, V00714, 94781_at, Striatum + Cortex, treated vs untreated R6/2
[11] = Hemoglobin, beta 1 mRNA, V00722, 103534_at, Cortex, treated vs untreated R6/2
[12] = Hemoglobin, beta adult major chain mRNA, J00413, 101869_s_at, Striatum + Cortex, treated vs untreated R6/2
[13] = Heterogeneous nuclear ribonucleoprotein A1 mRNA, AI183202, 92724_at, Striatum, treated vs untreated R6/2
[14] = MAP kinase phosphatase-1 (MKP-1) mRNA, X61940, 104598_at, Striatum + Cortex, 1.2 g/kg i.p. 2 weeks vs untreated R6/2
[15] = MAP kinase phosphatase-3 (MKP-3) mRNA, AI845584, 93285_at, Cortex, treated vs untreated R6/2
[16] = Microtubule-associated protein tau mRNA, M18775, 102431_at, Cortex, treated vs untreated R6/2
[17] = Preproenkephalin mRNA, Striatum
[18] = Protein phosphatase 1B, beta isoform mRNA, D45859, 101836_at, Striatum, treated vs untreated R6/2
[19] = Transthyretin mRNA, D00073, 95350_at, Striatum, treated vs untreated R6/2
[20] = Unknown mRNA, AA711516, 96302_at, Striatum, treated vs untreated R6/2
[21] = Unknown mRNA, AI153421, 96215_f_at, Striatum, treated vs untreated R6/2
[22] = Unknown mRNA, AI451558, 97161_at, Striatum, treated vs untreated R6/2
[23] = Unknown mRNA, AV330064, 161114_i_at, Cortex, treated vs untreated R6/2
[24] = Unknown mRNA, C79248, 94689_at, Striatum + Cortex, treated vs untreated R6/2
[25] = c-fos oncogene mRNA, V00727, 160901_at, Cortex, treated vs untreated R6/2

In the case of `CCCC(=O)[O-].[Na+]` [sodium butyrate], the “% Change calls” value [1, 5] is reported as 100%, the Direction of change [1, 5] is reported as “Increase” and the “% Change calls” value [1, 6] is reported as 75%. The Direction of change [1, 6] was “Increase”, the “% Change calls” value [1, 7] was 75% and the Direction of change [1, 7] was “Increase”. The “% Change calls” value [1, 8] was 75%, the Direction of change [1, 8] was “Decrease” and the “% Change calls” value [1, 9] was 100%. For the same molecule, the Direction of change [1, 9] was “Decrease”, the “% Change calls” value [1, 10] was 100% and the Direction of change [1, 10] was “Increase”. For the same molecule, the “% Change calls” value [1, 11] was 75%, the Direction of change [1, 11] was “Increase” and the “% Change calls” value [1, 12] was 100%. The Direction of change [1, 12] was “Increase”, the “% Change calls” value [1, 13] was 75% and the Direction of change [1, 13] was “Decrease”. The “% Change calls” value [1, 14] was 100%, the Direction of change [1, 14] was “Increase” and the “% Change calls” value [1, 15] was 75%. For the same molecule, the Direction of change [1, 15] was “Increase”, the “Array, NaBu Txd R6/2 vs R6/2” value ([1]; MKP-1 mRNA, Cortex) was “I” and the “Array, NaBu Txd R6/2 vs R6/2” value ([1]; MKP-1 mRNA, Striatum) was “I”. For the same molecule, the “% Change calls” value [1, 16] was 75%, the Direction of change [1, 16] was “Decrease” and the “Array, NaBu Txd R6/2 vs R6/2” value [1, 17] was “NC”. For the same molecule, the “% Change calls” value [1, 18] was 75%, the Direction of change [1, 18] was “Increase” and the “% Change calls” value [1, 19] was 75%. For the same molecule, the Direction of change [1, 19] was “Decrease”, the “% Change calls” value [1, 20] was 75% and the Direction of change [1, 20] was “Decrease”. For the same molecule, the “% Change calls” value [1, 21] was 75%, the Direction of change [1, 21] was “Decrease” and the “% Change calls” value [1, 22] was 75%. The Direction of change [1, 22] was “Decrease”, the “% Change calls” value [1, 23] was 75% and the Direction of change [1, 23] was “Decrease”. The “% Change calls” value [1, 24] was 75%, the Direction of change [1, 24] was “Decrease” and the “% Change calls” value [1, 25] was 100%. The Direction of change [1, 25] was “Increase”, the “number of mRNA changes” value ([1]; treated R6/2 vs untreated R6/2, striatum and cortex, 1.2 g/kg i.p. 2 weeks) was 20 and the “Array, NaBu Txd R6/2 vs R6/2” value ([1]; α-globin mRNA, Cortex) was “I”. The “Array, NaBu Txd R6/2 vs R6/2” value ([1]; α-globin mRNA, Striatum) was “I”, the “Array, NaBu Txd R6/2 vs R6/2” value ([1]; β-globin mRNA, Cortex) was “I” and the “Array, NaBu Txd R6/2 vs R6/2” value ([1]; β-globin mRNA, Striatum) was “I”. For the same molecule, the brain weight loss ([2]; 1.2 g/kg/d i.p. from 21 days, vs wild type littermates (unsupplemented R6/2: 18.9%)) was 5.6%, the striatal neuron area ([2]; 1.2 g/kg/d i.p., Wt 138.9, PBS-treated R6/2 57.1, p<0.01 vs PBS) was 113.5 ± 14.2 _m2 and the “reduction of striatal neuron atrophy” value ([2]; 1.2 g/kg/d i.p., vs PBS-treated R6/2) was “one fold”. For the same molecule, the “gross brain atrophy, ventricular hypertrophy” value ([2]; 1.2 g/kg/d i.p., vs PBS-treated/untreated R6/2) was “reduced gross brain atrophy and ventricular enlargement; also recorded: ameliorated these gross neuropathological sequelae”, the “huntingtin-positive striatal aggregates or ubiquitin-positive inclusions” value [3] was “no significant differences; also recorded: no significant reduction” and the “Northern, NaBu Txd R6/2 vs R6/2” value ([4]; MKP-1 mRNA, Cortex, p<0.0001) was 204%^e. For the same molecule, the “Northern, NaBu Txd R6/2 vs R6/2” value [4, 17] was 98%, the “Northern, NaBu Txd R6/2 vs R6/2” value ([4]; α-globin mRNA, Cortex, p<0.01) was 159%^c and the “Northern, NaBu Txd R6/2 vs R6/2” value ([4]; β-globin mRNA, Cortex, p<0.001) was 206%^d.
